Patent US10870647B2, “Imidazopyridine derivative, method for preparing same, and pharmaceutical composition containing same as active ingredient for preventing or treating cancer” (DAEGU-GYEONGBUK MEDICAL INNOVATION FOUNDATION, priority 2016, dated 2020)
Like-named read-outs stand apart in the source and are kept apart here.

Key:
Test in all cases: Kinase selectivity, scanMAX Kinase assay panel (DiscoverX), % control at 1 uM
Assay type in all cases: binding
[1] = molecular target: T1, scanMAX Kinase assay panel (Homo sapiens, UniProt P06239); conditions: LCK; 1 uM; read-out: Percent Control (%)
T1 construct: purchased DiscoverX
T1 sequence (P06239 whole entry): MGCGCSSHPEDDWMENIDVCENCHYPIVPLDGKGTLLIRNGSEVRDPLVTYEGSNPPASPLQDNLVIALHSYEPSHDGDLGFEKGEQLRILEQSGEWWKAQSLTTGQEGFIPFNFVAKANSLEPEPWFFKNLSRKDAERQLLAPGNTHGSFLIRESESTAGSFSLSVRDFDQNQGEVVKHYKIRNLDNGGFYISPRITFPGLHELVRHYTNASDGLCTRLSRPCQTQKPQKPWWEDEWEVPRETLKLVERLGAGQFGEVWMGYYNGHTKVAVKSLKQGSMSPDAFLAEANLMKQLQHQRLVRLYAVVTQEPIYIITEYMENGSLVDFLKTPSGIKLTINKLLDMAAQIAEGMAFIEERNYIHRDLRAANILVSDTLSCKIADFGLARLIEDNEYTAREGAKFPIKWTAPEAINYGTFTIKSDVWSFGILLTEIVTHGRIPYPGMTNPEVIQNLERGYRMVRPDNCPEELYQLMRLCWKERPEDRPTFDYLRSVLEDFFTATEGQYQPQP
Outline: (§1)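 1 uM cpd (DMSO) per kinase; % ctrl = [cpd − pos ctrl]/[neg ctrl − pos ctrl] × 100; hit if <35.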

[2] = molecular target: T2, scanMAX Kinase assay panel (Homo sapiens, UniProt P00519, F317I); conditions: 1 uM, read-out: Percent Control (%)
T2 construct: purchased DiscoverX
T2 sequence (P00519 whole entry F317I): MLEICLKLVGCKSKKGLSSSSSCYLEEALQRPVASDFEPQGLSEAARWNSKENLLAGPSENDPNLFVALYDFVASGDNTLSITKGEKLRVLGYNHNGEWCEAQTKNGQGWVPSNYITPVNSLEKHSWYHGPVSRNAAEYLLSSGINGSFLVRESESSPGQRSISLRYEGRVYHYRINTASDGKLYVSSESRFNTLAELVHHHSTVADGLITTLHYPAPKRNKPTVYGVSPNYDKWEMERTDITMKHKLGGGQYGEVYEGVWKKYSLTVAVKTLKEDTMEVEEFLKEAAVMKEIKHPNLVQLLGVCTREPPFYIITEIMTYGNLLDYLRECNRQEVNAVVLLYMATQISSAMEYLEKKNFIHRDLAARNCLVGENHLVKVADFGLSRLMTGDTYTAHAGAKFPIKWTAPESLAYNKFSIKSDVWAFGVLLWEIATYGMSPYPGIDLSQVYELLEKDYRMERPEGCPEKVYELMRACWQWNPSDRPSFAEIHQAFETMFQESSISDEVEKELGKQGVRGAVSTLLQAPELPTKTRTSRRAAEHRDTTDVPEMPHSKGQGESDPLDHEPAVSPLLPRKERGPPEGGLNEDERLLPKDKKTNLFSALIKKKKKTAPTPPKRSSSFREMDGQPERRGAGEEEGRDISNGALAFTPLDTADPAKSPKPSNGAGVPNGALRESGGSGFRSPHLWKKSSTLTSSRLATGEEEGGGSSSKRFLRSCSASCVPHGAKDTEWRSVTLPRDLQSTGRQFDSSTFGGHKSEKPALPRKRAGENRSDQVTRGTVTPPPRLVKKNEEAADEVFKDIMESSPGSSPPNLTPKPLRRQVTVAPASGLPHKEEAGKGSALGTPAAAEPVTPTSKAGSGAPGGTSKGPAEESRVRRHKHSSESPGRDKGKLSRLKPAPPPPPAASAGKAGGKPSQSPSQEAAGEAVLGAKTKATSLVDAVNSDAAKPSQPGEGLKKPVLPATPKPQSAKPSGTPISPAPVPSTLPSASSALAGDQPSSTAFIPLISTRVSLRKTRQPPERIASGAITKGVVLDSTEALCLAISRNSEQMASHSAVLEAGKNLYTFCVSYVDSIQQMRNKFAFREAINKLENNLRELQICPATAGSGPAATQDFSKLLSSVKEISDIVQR
Outline: as §1

[3] = molecular target: T3, scanMAX Kinase assay panel (Homo sapiens, UniProt Q9NYY3); conditions: PLK2; 1 uM; read-out: Percent Control (%)
T3 construct: purchased DiscoverX
T3 sequence (Q9NYY3 whole entry): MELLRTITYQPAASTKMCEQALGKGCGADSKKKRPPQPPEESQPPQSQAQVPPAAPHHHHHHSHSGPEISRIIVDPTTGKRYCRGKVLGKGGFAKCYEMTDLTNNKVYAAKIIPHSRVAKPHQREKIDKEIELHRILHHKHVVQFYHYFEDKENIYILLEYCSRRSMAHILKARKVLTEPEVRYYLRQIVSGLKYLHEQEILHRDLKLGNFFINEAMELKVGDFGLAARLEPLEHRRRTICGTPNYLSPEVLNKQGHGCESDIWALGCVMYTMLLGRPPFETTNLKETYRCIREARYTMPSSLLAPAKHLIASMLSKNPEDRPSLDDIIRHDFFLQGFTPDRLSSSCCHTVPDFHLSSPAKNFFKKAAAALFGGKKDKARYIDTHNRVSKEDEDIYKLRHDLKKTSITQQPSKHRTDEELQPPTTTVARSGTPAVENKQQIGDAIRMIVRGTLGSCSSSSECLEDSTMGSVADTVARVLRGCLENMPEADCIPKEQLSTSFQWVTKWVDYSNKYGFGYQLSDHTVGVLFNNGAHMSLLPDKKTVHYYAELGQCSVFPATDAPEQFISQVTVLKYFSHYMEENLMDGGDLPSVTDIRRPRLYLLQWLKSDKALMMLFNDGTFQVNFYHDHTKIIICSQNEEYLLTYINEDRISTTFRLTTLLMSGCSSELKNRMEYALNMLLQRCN
Outline: as §1

[4] = molecular target: T4, scanMAX Kinase assay panel (Homo sapiens, UniProt P36888); conditions: 1 uM, read-out: Percent Control (%)
T4 construct: purchased DiscoverX
T4 sequence (P36888 27-993): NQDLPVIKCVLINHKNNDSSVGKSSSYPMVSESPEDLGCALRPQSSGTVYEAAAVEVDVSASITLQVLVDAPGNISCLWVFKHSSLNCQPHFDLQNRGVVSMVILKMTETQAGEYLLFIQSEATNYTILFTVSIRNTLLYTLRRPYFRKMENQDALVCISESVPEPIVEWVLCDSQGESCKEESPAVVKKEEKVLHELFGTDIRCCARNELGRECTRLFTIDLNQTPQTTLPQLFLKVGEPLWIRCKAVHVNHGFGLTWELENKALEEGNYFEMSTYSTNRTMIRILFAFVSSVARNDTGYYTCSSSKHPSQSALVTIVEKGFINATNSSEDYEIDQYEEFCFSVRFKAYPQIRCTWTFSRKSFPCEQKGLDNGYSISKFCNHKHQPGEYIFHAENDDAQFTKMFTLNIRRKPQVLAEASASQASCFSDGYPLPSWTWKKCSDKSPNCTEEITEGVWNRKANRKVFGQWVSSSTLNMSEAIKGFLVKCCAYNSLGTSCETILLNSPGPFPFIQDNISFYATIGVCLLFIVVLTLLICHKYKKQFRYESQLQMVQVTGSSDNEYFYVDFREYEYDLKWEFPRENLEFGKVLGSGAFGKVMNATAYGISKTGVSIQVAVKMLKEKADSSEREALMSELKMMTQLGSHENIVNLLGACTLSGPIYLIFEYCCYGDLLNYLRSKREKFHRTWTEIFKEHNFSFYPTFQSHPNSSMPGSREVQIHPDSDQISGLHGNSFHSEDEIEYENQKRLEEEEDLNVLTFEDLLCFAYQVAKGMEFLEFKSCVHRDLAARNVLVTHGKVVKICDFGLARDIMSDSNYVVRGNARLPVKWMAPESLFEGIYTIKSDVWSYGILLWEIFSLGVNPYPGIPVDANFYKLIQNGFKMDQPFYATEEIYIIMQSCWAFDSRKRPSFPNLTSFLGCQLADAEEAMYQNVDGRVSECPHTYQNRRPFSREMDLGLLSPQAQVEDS
Outline: as §1

[5] = molecular target: T5, scanMAX Kinase assay panel (Homo sapiens, UniProt Q14680); conditions: MELK; 1 uM; read-out: Percent Control (%)
T5 construct: purchased DiscoverX
T5 sequence (Q14680 whole entry): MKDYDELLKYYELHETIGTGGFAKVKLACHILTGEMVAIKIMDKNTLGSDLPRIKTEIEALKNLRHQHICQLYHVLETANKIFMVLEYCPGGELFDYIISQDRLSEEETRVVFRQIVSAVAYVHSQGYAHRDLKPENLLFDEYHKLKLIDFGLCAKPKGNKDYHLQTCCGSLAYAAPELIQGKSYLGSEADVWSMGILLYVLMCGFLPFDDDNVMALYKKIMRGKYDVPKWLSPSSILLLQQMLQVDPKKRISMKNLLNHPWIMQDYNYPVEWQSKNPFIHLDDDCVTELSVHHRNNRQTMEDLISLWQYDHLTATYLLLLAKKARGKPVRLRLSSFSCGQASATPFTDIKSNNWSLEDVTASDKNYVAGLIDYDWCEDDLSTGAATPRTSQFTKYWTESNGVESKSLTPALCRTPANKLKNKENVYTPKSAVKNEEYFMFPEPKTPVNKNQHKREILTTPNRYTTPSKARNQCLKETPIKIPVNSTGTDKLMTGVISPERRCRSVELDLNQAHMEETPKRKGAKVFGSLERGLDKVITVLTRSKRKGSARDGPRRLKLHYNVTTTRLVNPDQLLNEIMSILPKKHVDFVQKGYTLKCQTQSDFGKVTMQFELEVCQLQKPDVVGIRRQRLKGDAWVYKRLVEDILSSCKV
Outline: as §1

[6] = molecular target: T6, scanMAX Kinase assay panel (Homo sapiens, UniProt Q6ZWH5); conditions: NEK10; 1 uM; read-out: Percent Control (%)
T6 construct: purchased DiscoverX
T6 sequence (Q6ZWH5 1-1172): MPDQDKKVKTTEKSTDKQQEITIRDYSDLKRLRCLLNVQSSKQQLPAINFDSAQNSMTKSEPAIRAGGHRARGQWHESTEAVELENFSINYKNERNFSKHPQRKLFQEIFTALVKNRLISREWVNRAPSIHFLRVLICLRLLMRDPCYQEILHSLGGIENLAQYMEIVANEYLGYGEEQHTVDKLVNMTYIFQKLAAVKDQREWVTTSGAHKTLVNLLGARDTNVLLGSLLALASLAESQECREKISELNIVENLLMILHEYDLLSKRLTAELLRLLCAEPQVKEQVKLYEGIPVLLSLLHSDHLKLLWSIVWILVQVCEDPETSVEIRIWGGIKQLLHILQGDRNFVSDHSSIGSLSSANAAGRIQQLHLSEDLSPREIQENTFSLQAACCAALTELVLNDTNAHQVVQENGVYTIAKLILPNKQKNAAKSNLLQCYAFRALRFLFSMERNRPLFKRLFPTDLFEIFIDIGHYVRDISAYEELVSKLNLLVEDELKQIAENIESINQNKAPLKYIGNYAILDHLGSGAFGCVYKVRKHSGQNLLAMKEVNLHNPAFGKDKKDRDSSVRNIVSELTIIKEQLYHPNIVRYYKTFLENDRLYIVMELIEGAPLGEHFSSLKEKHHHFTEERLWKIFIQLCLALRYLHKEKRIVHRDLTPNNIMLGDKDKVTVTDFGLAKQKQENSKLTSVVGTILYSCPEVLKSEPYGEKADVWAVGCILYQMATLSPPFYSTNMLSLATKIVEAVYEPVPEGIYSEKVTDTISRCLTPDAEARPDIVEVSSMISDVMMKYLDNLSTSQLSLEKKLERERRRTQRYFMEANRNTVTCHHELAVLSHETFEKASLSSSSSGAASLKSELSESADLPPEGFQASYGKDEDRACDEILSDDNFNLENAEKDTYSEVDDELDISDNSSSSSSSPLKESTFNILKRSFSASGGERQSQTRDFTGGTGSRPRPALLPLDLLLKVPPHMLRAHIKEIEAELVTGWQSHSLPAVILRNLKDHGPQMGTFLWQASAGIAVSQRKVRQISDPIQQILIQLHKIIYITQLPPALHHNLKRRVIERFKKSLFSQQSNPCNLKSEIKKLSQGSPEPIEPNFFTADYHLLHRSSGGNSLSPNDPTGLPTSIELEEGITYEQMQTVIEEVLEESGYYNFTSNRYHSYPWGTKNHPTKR
Outline: as §1

[7] = molecular target: T7, scanMAX Kinase assay panel (Homo sapiens, UniProt Q00535); conditions: CDK5; 1 uM; read-out: Percent Control (%)
T7 construct: purchased DiscoverX
T7 sequence (Q00535 whole entry): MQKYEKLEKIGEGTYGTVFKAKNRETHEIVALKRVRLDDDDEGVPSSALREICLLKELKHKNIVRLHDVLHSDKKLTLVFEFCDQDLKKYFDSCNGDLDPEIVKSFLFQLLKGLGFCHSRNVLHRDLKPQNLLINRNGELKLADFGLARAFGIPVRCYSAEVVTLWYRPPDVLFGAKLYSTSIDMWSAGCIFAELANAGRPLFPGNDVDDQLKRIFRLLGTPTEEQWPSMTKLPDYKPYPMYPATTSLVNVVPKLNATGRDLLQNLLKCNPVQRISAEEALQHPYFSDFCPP
Outline: as §1

Structure (SMILES)	remaining binding at 1 µM [1] [%]	remaining binding at 1 µM ([2]; ABL1 (F317I)-nonphosphorylated) [%]	remaining binding at 1 µM ([2]; ABL1 (F317I)-phosphorylated) [%]	remaining binding at 1 µM [3] [%]	remaining binding at 1 µM ([4]; FLT3-autoinhibited) [%]	remaining binding at 1 µM ([4]; FLT3) [%]	remaining binding at 1 µM [5] [%]	remaining binding at 1 µM [6] [%]	remaining binding at 1 µM [7] [%]
Cc1ccc(C(=O)Nc2ccc(CN3CCN(C)CC3)c(C(F)(F)F)c2)cc1C#Cc1cnc2c(Nc3cnn(C)c3)cccn12 [Example 1, 4-methyl-3-((8-((1-methyl-1H-pyrazol-4-yl)amino)imidazo[1,2-a]pyridin-3-yl)ethynyl)-N-(4-((4-methylpiperazin-1-yl)methyl)-3-(trifluoromethyl)phenyl)benzamide]	0	1	3	84	46	1	9	100	30
Cc1cn(-c2cc(NC(=O)c3ccc(C)c(C#Cc4cnc5c(Nc6cnn(C)c6)cccn45)c3)cc(C(F)(F)F)c2)cn1 [Example 12, 4-methyl-N-(3-(4-methyl-1H-imidazol-1-yl)-5-(trifluoromethyl)phenyl)-3-((8-((1-methyl-1H-pyrazol-4-yl)amino)imidazo[1,2-a]pyridin-3-yl)ethynyl)benzamide]	0	10	28	100	100	4	98	100	89
Cc1ccc(NC(=O)C2(C(=O)Nc3ccc(F)cc3)CC2)cc1C#Cc1cnc2c(Nc3cnn(C(C)C)c3)cccn12 [Example 78]	40	36	72	62	100	42	91	100	100
